Consider 28 compounds from paper PMC2248166, “Quantitative peptide binding motifs for 19 human and mouse MHC class I molecules derived using positional scanning combinatorial peptide libraries” (Immunome Research, 2008).

Structures are written as SMILES. Where a SMILES comes first, the peptide text is derived from it.

The assay addresses HLA A*3001 (Homo sapiens, UniProt P04439, D140H/D185E/E176W/F33S/G80R/H175R/K168Q/R138E/R41S). Briefly: biochemical. Type of assay: binding.

HLA A*3001, sequence (P04439 25-365 limits assumed, stated change not applied): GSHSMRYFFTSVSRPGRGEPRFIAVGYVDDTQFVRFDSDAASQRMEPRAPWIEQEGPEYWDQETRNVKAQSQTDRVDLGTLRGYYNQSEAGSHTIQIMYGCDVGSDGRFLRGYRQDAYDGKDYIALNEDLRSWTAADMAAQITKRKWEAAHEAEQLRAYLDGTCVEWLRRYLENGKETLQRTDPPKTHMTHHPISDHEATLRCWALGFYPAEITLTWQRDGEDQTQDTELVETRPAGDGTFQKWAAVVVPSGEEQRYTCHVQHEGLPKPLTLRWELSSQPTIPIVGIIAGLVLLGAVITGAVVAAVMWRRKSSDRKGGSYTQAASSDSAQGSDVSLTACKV

With `CC[C@H](C)[C@H](NC(=O)[C@@H](NC(=O)[C@H](CC(N)=O)NC(=O)[C@H](CCCCN)NC(=O)[C@H](CO)NC(=O)[C@@H](N)CCCNC(=N)N)[C@@H](C)O)C(=O)N[C@H](C(=O)N[C@H](C(=O)N[C@@H](C)C(=O)O)[C@@H](C)CC)[C@@H](C)CC` [3102.0089] (H-RSKNTIIIA-OH), the midpoint of inhibition, the IC50, lay at 0.16 nM.

For `CSCC[C@H](N)C(=O)N[C@@H](CCC(N)=O)C(=O)N[C@@H](CCCCN)C(=O)N[C@@H](CS)C(=O)N[C@@H](Cc1ccc(O)cc1)C(=O)N[C@@H](Cc1ccccc1)C(=O)N[C@@H](CO)C(=O)N[C@@H](Cc1ccc(O)cc1)C(=O)N[C@@H](CCCCN)C(=O)O` [3102.0090] (H-MQKCYFSYK-OH), it took 0.53 nM to reach half-maximal inhibition (IC50).

`CC[C@H](C)[C@H](NC(=O)[C@@H](N)CCCCN)C(=O)N[C@@H](CCCCN)C(=O)N[C@@H](CO)C(=O)N[C@@H](CO)C(=O)N[C@@H](CC(N)=O)C(=O)N[C@@H](CO)C(=O)N[C@@H](CO)C(=O)N[C@@H](CCCCN)C(=O)O` [3102.0091] (H-KIKSSNSSK-OH): the midpoint of inhibition, the IC50, lay at 15 nM.

Take `CC[C@H](C)[C@H](NC(=O)[C@H](CC(N)=O)NC(=O)CNC(=O)[C@H](CC(N)=O)NC(=O)[C@H](CCCCN)NC(=O)[C@@H](NC(=O)[C@H](C)N)[C@@H](C)O)C(=O)N[C@@H](Cc1ccccc1)C(=O)N[C@H](C(=O)O)C(C)C` [3102.0093] (H-ATKNGNIFV-OH): the IC50 (commonly the point on the concentration scale where inhibition reaches its midpoint) came out at 3.9 nM.

`CC[C@H](C)[C@H](NC(=O)[C@H](CC(C)C)NC(=O)[C@H](C)NC(=O)[C@@H](NC(=O)[C@H](Cc1c[nH]cn1)NC(=O)[C@@H](NC(=O)[C@@H](N)CCCNC(=N)N)[C@@H](C)O)[C@@H](C)O)C(=O)N[C@@H](Cc1ccccc1)C(=O)N[C@@H](CC(C)C)C(=O)O` [3102.0094] (H-RTHTALIFL-OH) registered an IC50 of 0.7 nM.

For the compound `CC[C@H](C)[C@H](NC(=O)[C@@H](NC(=O)[C@H](CCCCN)NC(=O)[C@H](CO)NC(=O)[C@H](C)N)[C@@H](C)O)C(=O)N[C@@H](CC(N)=O)C(=O)N[C@@H](C)C(=O)N[C@@H](CC(C)C)C(=O)N[C@H](C(=O)O)C(C)C` [3102.0095] (H-ASKTINALV-OH), the IC50 is 0.18 nM.

The compound `CC[C@H](C)[C@H](NC(=O)[C@H](CCC(N)=O)NC(=O)[C@H](Cc1c[nH]cn1)NC(=O)[C@H](CO)NC(=O)[C@H](CCC(=O)O)NC(=O)[C@H](CCCCN)NC(=O)[C@@H](NC(=O)[C@@H](N)C(C)C)[C@@H](C)O)C(=O)N[C@@H](CCCCN)C(=O)O` [3102.0096] (H-VTKESHQIK-OH) displayed an IC50 of 1.5 nM.

Regarding `CC[C@H](C)[C@H](NC(=O)[C@@H](N)CCCCN)C(=O)N[C@@H](CCCCN)C(=O)N[C@@H](C)C(=O)NCC(=O)N1CCC[C@H]1C(=O)N[C@@H](CCCNC(=N)N)C(=O)N[C@@H](Cc1ccc(O)cc1)C(=O)N[C@H](C(=O)O)C(C)C` [3102.0097] (H-KIKAGPRYV-OH), it took 6.9 nM to reach half-maximal inhibition (IC50).

As for `CC[C@H](C)[C@H](N)C(=O)N[C@@H](CO)C(=O)N[C@@H](CCCNC(=N)N)C(=O)N[C@@H](Cc1ccccc1)C(=O)N[C@@H](C)C(=O)N[C@@H](CC(N)=O)C(=O)N[C@@H](CC(C)C)C(=O)N[C@H](C(=O)N[C@@H](CCCCN)C(=O)O)[C@@H](C)CC` [3102.0098] (H-ISRFANLIK-OH), the half-inhibitory concentration (IC50) was found to be 13 nM.

Consider `CC[C@H](C)[C@H](NC(=O)[C@H](Cc1c[nH]cn1)NC(=O)[C@@H](NC(=O)[C@H](CC(N)=O)NC(=O)[C@H](CCCCN)NC(=O)[C@@H](NC(=O)[C@@H](N)CCCCN)C(C)C)C(C)C)C(=O)NCC(=O)NCC(=O)O` [3102.0099] (H-KVKNVHIGG-OH), for which the midpoint of inhibition, the IC50, lay at 0.34 nM.

`CC[C@H](C)[C@H](NC(=O)[C@H](CCSC)NC(=O)[C@H](Cc1ccccc1)NC(=O)[C@H](CC(=O)O)NC(=O)[C@H](CC(N)=O)NC(=O)[C@H](CCCCN)NC(=O)[C@@H](NC(=O)[C@@H](N)Cc1c[nH]cn1)[C@@H](C)CC)C(=O)N[C@@H](CCCCN)C(=O)O` [3102.0101] (H-HIKNDFMIK-OH) showed a half-inhibitory concentration (IC50) of 1.6 nM.

Compound `CC(C)[C@H](NC(=O)[C@H](C)NC(=O)[C@H](Cc1ccccc1)NC(=O)[C@H](CO)NC(=O)[C@H](CS)NC(=O)[C@H](CCCNC(=N)N)NC(=O)[C@H](Cc1ccc(O)cc1)NC(=O)[C@@H](N)CCCNC(=N)N)C(=O)N[C@@H](C)C(=O)O` [3102.0102] (H-RYRCSFAVA-OH) had an IC50 of 0.0038 nM.

Compound `CC(C)C[C@H](NC(=O)[C@H](CO)NC(=O)[C@@H](N)CCCCN)C(=O)N[C@@H](Cc1ccc(O)cc1)C(=O)N[C@@H](CO)C(=O)N[C@@H](Cc1c[nH]cn1)C(=O)N[C@@H](CCC(N)=O)C(=O)N[C@@H](CC(C)C)C(=O)N[C@H](C(=O)O)C(C)C` [3102.0103] (H-KSLYSHQLV-OH) showed an IC50 of 12 nM.

Compound `CC[C@H](C)[C@H](NC(=O)[C@@H]1CCCN1C(=O)[C@H](CC(C)C)NC(=O)[C@H](CCCNC(=N)N)NC(=O)[C@@H](NC(=O)[C@@H](N)CCSC)[C@@H](C)O)C(=O)N[C@@H](CC(C)C)C(=O)N[C@@H](CC(C)C)C(=O)N[C@@H](CC(C)C)C(=O)O` [3102.0104] (H-MTRLPILLL-OH) gave a 50% inhibitory concentration (IC50) of 0.65 nM.

Compound `CC(C)C[C@H](NC(=O)[C@@H](N)CCCCN)C(=O)N[C@@H](CCCNC(=N)N)C(=O)N[C@@H](CS)C(=O)N[C@@H](CCCNC(=N)N)C(=O)N[C@@H](CC(N)=O)C(=O)N[C@H](C(=O)N[C@@H](CCC(=O)O)C(=O)N[C@@H](C)C(=O)O)[C@@H](C)O` [3102.0105] (H-KLRCRNTEA-OH) came in with a half-inhibitory concentration (IC50) of 14 nM.

`CC[C@H](C)[C@H](NC(=O)[C@@H](N)CCCNC(=N)N)C(=O)N[C@@H](CCCNC(=N)N)C(=O)N[C@@H](CCC(N)=O)C(=O)N[C@@H](CCC(N)=O)C(=O)N[C@@H](CC(C)C)C(=O)N1CCC[C@H]1C(=O)N[C@@H](CC(C)C)C(=O)N[C@@H](Cc1ccc(O)cc1)C(=O)O` [3102.0107] (H-RIRQQLPLY-OH) gave a 50% inhibitory concentration (IC50) of 13 nM.

The compound `CC(C)C[C@H](NC(=O)[C@H](CC(N)=O)NC(=O)[C@H](CCC(N)=O)NC(=O)[C@H](CC(N)=O)NC(=O)[C@H](CO)NC(=O)[C@H](CC(C)C)NC(=O)[C@H](Cc1c[nH]cn1)NC(=O)[C@@H](NC(=O)[C@@H](N)Cc1c[nH]cn1)[C@@H](C)O)C(=O)O` [3102.0108] (H-HTHLSNQNL-OH) had an IC50 of 5.8 nM.

The compound `CC[C@H](C)[C@H](NC(=O)[C@H](CC(C)C)NC(=O)[C@H](CCCNC(=N)N)NC(=O)[C@H](CCC(N)=O)NC(=O)[C@H](CCCNC(=N)N)NC(=O)[C@H](Cc1ccc(O)cc1)NC(=O)[C@@H](N)CCCNC(=N)N)C(=O)N[C@@H](CO)C(=O)N[C@@H](CC(C)C)C(=O)O` [3102.0110] (H-RYRQRLISL-OH) had a half-maximal inhibitory concentration (IC50) of 5.2 nM.

`CC[C@H](C)[C@H](NC(=O)[C@H](Cc1ccc(O)cc1)NC(=O)[C@H](CO)NC(=O)[C@H](CC(C)C)NC(=O)[C@H](Cc1ccccc1)NC(=O)[C@H](Cc1c[nH]cn1)NC(=O)[C@H](CCCNC(=N)N)NC(=O)[C@@H](NC(=O)[C@@H](N)CCCNC(=N)N)[C@@H](C)O)C(=O)O` [3102.0111] (H-RTRHFLSYI-OH) registered a half-inhibitory concentration (IC50) of 0.24 nM.

In turn, `CC[C@H](C)[C@H](NC(=O)[C@H](CC(N)=O)NC(=O)[C@H](CCCNC(=N)N)NC(=O)[C@@H](NC(=O)[C@H](CCCNC(=N)N)NC(=O)[C@H](CO)NC(=O)CN)C(C)C)C(=O)N[C@H](C(=O)N[C@@H](C)C(=O)O)[C@@H](C)CC` [3102.0112] (H-GSRVRNIIA-OH) displayed an IC50 of 8.9 nM.

Regarding `NCCCC[C@H](NC(=O)[C@H](CS)NC(=O)[C@@H]1CCCN1C(=O)[C@H](CC(N)=O)NC(=O)[C@H](CCC(=O)O)NC(=O)[C@H](Cc1ccc(O)cc1)NC(=O)[C@H](CCCCN)NC(=O)[C@H](Cc1c[nH]c2ccccc12)NC(=O)[C@@H](N)CCCCN)C(=O)O` [3102.0113] (H-KWKYENPCK-OH), the midpoint of inhibition, the IC50, lay at 15 nM.

On to `CC(C)[C@H](NC(=O)[C@H](CO)NC(=O)[C@H](C)NC(=O)[C@H](Cc1c[nH]cn1)NC(=O)[C@H](CC(N)=O)NC(=O)[C@H](Cc1ccccc1)NC(=O)[C@H](C)NC(=O)[C@@H](N)CCCCN)C(=O)N[C@@H](CCCCN)C(=O)O` [3102.0118] (H-KAFNHASVK-OH), for which the midpoint of inhibition, the IC50, lay at 35 nM.

`CSCC[C@H](NC(=O)[C@H](CCCNC(=N)N)NC(=O)CNC(=O)[C@H](CO)NC(=O)[C@H](CO)NC(=O)[C@@H](NC(=O)[C@@H](N)CCCCN)[C@@H](C)O)C(=O)N1CCC[C@H]1C(=O)N[C@H](C(=O)O)C(C)C` [3102.0119] (H-KTSSGRMPV-OH) displayed an IC50 of 2 nM.

As to `C[C@H](NC(=O)[C@H](Cc1ccc(O)cc1)NC(=O)[C@H](CCCNC(=N)N)NC(=O)[C@H](Cc1ccc(O)cc1)NC(=O)[C@@H](NC(=O)[C@@H](N)CCCCN)[C@@H](C)O)C(=O)N[C@@H](Cc1ccccc1)C(=O)N[C@@H](CO)C(=O)N[C@@H](CCCCN)C(=O)O` [3102.0120] (H-KTYRYAFSK-OH), the IC50 was 22 nM.

`CSCC[C@H](NC(=O)[C@@H](N)CCCCN)C(=O)N[C@@H](CCCNC(=N)N)C(=O)N[C@@H](CC(=O)O)C(=O)N[C@H](C(=O)N[C@@H](CC(C)C)C(=O)N1CCC[C@H]1C(=O)N[C@@H](C)C(=O)N[C@@H](CCCCN)C(=O)O)[C@@H](C)O` [3102.0121] (H-KMRDTLPAK-OH): the IC50 worked out at 1.6 nM.

Compound `CC[C@H](C)[C@H](NC(=O)[C@H](Cc1ccc(O)cc1)NC(=O)[C@@H](NC(=O)[C@@H](N)CCCCN)C(C)C)C(=O)N[C@@H](CC(N)=O)C(=O)N[C@@H](Cc1c[nH]cn1)C(=O)N1CCC[C@H]1C(=O)N[C@@H](Cc1ccccc1)C(=O)N[C@@H](CCSC)C(=O)O` [3102.0124] (H-KVYINHPFM-OH) registered an IC50 of 0.52 nM.

`CC[C@H](C)[C@H](N)C(=O)N[C@H](C(=O)N[C@@H](CCCNC(=N)N)C(=O)N[C@@H](CC(=O)O)C(=O)N[C@@H](CO)C(=O)N[C@@H](CCSC)C(=O)N[C@@H](Cc1c[nH]c2ccccc12)C(=O)N[C@@H](Cc1ccc(O)cc1)C(=O)N[C@H](C(=O)O)[C@@H](C)CC)C(C)C` [3102.0125] (H-IVRDSMWYI-OH) had an IC50 of 20 nM.

Regarding `CC(C)C[C@H](NC(=O)[C@H](Cc1c[nH]cn1)NC(=O)[C@H](CC(N)=O)NC(=O)[C@H](CC(N)=O)NC(=O)[C@H](CCCNC(=N)N)NC(=O)[C@H](CO)NC(=O)[C@@H](N)[C@@H](C)O)C(=O)N1CCC[C@H]1C(=O)N[C@@H](C)C(=O)O` [3102.0126] (H-TSRNNHLPA-OH), the half-maximal inhibitory concentration (IC50) was 15 nM.
